# Several values for one entry are separate records, joined by “and”; a condition that tells them apart may be missing. Identical values can stand only once. Like-named read-outs stand apart in the source and are kept apart here.
# Assays:
# [1] = test system: CYP3A; set-up: method as in earlier work; conditions: cited from earlier work
# [2] = test system: CYP3A; conditions: cited from earlier work; for AUC ratio: co-administration with posaconazole 400 mg twice daily
# [3] = test system: CYP3A; experiment: PBPK simulation of clinical DDI studies (model verification); set-up: species or system human
# Protocol: For verification simulations, the dose and schedule of drugs were matched to the design of the corresponding clinical DDI study performed in healthy volunteers.
# The input parameters of these CYP3A substrates are available in the compound library of Simcyp version 21: SV-Ethinylestradiol and Sim-Midazolam. […] For the ivacaftor–ethinylestradiol situation, ivacaftor 150 mg was administered orally twice daily for 28 days, while ethinylestradiol oral 0.035 mg was administered once daily for 21 days.
# The PBPK models for posaconazole and voriconazole as CYP3A inhibitors were built according to the publications by Hong and Li et al., respectively. For the posaconazole–tacrolimus DDI study, posaconazole was administered orally at a dose of 400 mg twice daily for 7 days, and a single oral dose of tacrolimus 0.05 mg/kg was administered on day 7. For the voriconazole–tacrolimus DDI, voriconazole was administered orally at a dose of 400 mg twice daily for the first day, followed by 200 mg twice daily for the next 6 days, and a single oral dose of tacrolimus 0.1 mg/kg was administered on day 7.
# To quantify the DDIs, the geometric mean ratios of AUC or Cmax in the presence or absence of CYP3A modulators were determined. The assessment of the DDI prediction success was based on whether predictions fell within a twofold range of the observed data.
# [4] = cited from earlier work
# [5] = test system: CYP3A4; conditions: set to capture observed DDIs with ketoconazole or rifampin; cited from earlier work
# [6] = cited from earlier work; remark: listed apart in the source
# [7] = cited from earlier work; remark: listed apart in the source
# [8] = cited from earlier work; remark: listed apart in the source
# [9] = PBPK simulation of plasma or blood pharmacokinetics (Simcyp); conditions: single dose oral or intravenous, Cmax and AUC
# Description: The PBPK models were implemented within the Simcyp Simulator (version 21; Certara, Sheffield, UK). To mimic the CF population, the distribution of ages and proportion of females were corrected to reflect the demographics of the CF population in the default healthy population library file (Sim-Healthy volunteers) provided in Simcyp® [18]. […] Further, the proportion of females was adjusted from 0.32 in the healthy population to 0.48 in CF. For the trial design, we used a population size of 100 (10 trials with 10 subjects in each trial).
# Ivacaftor was orally administered under fed conditions to mimic the clinical setting, where a fat-containing food is required for optimal absorption. The simulated data were qualified using the plasma PK data observed in an adult CF population [11].
# The whole-blood PK profiles of tacrolimus following single-dose administration (0.05 mg/kg oral or 0.01 mg/kg iv infusion for 4 h) were simulated to verify the performance of the tacrolimus model. Tacrolimus was administered under fasted conditions to mimic the clinical study. The simulated data were qualified using the blood PK data observed in a healthy adult population [24].
# The prediction accuracies for the area under the curve (AUC) and maximum plasma concentration (Cmax) values were calculated as a ratio of mean observed over mean predicted values. […]
# [10] = cited from earlier work; remark: listed apart in the source
# [11] = test system: Caco-2 cell; set-up: method as in Gertz et al. [22]; conditions: ref Gertz et al. [22]; cited from earlier work
# [12] = Clinical case series: tacrolimus trough levels before and after starting ETI in CF lung transplant recipients; assay type: in vivo, human
# Protocol: This was an IRB-approved, retrospective, single-center cohort study that reviewed all CF lung transplant recipients prescribed ETI post lung transplantation. Patients were included if they were 18 years of age or older with CF, with at least one F508del mutation/minimal function genotype or a mutation in the CFTR gene that is responsive to ETI based on in vitro data. To evaluate the impact of ETI on tacrolimus exposure, tacrolimus trough levels were recorded before and up to one month after starting ETI. Patients had to be clinically stable, with no significant changes in health status, or initiating new medications known to modulate CYP3A4 and/or P-gp one month before or after starting ETI. Patients lost to follow-up or with missing tacrolimus trough levels were excluded.
# Collected data included age, sex, weight, baseline lung function, body mass index, CFTR genotype, additional comorbidities, transplant and ETI start dates, ETI and tacrolimus dosing regimens, concurrent CYP3A4 modulators, and tacrolimus blood levels.
# Baseline lung function was defined as the highest forced expiratory volume in one second (FEV1) during the year prior to initiating ETI therapy, obtained from routine pulmonary function tests. Percent predicted FEV1 (ppFEV1) was then extrapolated using the Global Lung Function Initiative 2012 prediction equation [35]. Tacrolimus troughs were measured through routine clinical laboratory blood draws and analyzed by validated immunoturbidometric protocols. To assess the effects of ETI, tacrolimus doses and concentrations within one month before and after ETI start were recorded. The steady state for tacrolimus and ETI were estimated to be attained within four to five half-lives after starting a regimen. Tacrolimus troughs were recorded at least 2–3 days after a dose change and 5–6.5 days post ETI initiation, based on elexacaftor’s longest half-life of the three CFTR modulators. Furthermore, to explore potential variability in the adherence to therapy and the timing of blood draws, tacrolimus trough levels within one month post ETI were averaged. For two patients with a changed tacrolimus dose immediately prior to ETI initiation and without a corresponding trough level, we captured the next most recent dose and trough within a three-month period.
# All statistical analyses were performed using GraphPad version 8.0.2, with a two-sided significance value of 0.05.
# [13] = target: CYP3A4 (Homo sapiens, UniProt P08684); set-up: method as in Dai et al. [23]; conditions: ref Dai et al. [23], cited from earlier work
# [14] = set-up: method as in Emoto et al. [25]; conditions: ref Emoto et al. [25], cited from earlier work
# [15] = test system: CYP3A5; set-up: method as in Dai et al. [23]; conditions: ref Dai et al. [23], cited from earlier work
# [16] = victim drug +/− ivacaftor 150 mg oral twice daily, healthy volunteers
# [17] = ivacaftor 150 mg q12h oral, plasma, adult CF population
# [18] = individual patients 1–13, dose normalized
# [19] = tacrolimus 0.05 mg/kg single dose oral, blood, healthy adults
# [20] = tacrolimus 0.1 mg/kg single dose iv infusion (4 h), blood, healthy adults
# Chain of CYP3A4 (Homo sapiens, UniProt P08684) (P08684 whole entry): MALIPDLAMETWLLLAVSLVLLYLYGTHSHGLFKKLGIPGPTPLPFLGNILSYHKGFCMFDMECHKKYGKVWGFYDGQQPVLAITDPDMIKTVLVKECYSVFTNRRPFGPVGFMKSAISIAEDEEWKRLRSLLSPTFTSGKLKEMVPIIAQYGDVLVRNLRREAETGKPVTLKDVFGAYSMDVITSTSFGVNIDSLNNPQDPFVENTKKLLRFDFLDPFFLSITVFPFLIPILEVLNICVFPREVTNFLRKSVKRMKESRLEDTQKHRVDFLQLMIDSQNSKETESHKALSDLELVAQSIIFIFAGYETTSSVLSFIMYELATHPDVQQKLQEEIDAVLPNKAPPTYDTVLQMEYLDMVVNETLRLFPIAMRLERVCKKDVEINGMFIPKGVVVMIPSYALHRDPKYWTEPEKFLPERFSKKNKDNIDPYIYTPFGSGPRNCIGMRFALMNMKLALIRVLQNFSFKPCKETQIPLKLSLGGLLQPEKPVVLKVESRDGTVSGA
smiles,measurement,setting,value
Cc1nn(C)cc1S(=O)(=O)NC(=O)c1ccc(-n2ccc(OCC(C)(C)C(F)(F)F)n2)nc1N1C[C@@H](C)CC1(C)C [elexacaftor],effect on the activity of CYP3A,[1],no significant effect
C#C[C@]1(O)CC[C@H]2[C@@H]3CCc4cc(O)ccc4[C@H]3CC[C@@]21C [ethinylestradiol],"AUC Ratio, Observed GMR (90% CI)",[2]; [16],"1.07 (1.00, 1.14)"
same,"Cmax Ratio, Observed GMR (90% CI)",[2]; [16],"1.22 (1.10, 1.36)"
same,"AUC Ratio, Ratio (Simulated/Observed)",[3]; victim drug +/− ivacaftor,1.07
same,"Cmax Ratio, Ratio (Simulated/Observed)",[3]; victim drug +/− ivacaftor,0.91
CC(C)(C)c1cc(C(C)(C)C)c(NC(=O)c2c[nH]c3ccccc3c2=O)cc1O [ivacaftor],fraction of unbound drug in plasma (fu),[4]; ivacaftor model input,0.001
same,fraction metabolized by CYP3A4 (fmCYP3A4),[5],98%
same,Observed AUC (0–12 h) (mean),[6]; [17],"12,100 ng∙h/mL"
same,Observed Cmax (mean),[6]; [17],1270 ng/mL
same,logP,[7]; ivacaftor model input,5.68
same,Tmax,"[8]; human, in vivo",2 to 6 h
same,half-life,"[8]; human, in vivo",15 h
Cc1ncc2n1-c1ccc(Cl)cc1C(c1ccccc1F)=NC2 [midazolam],AUC ratio,[2],4.97
same,"AUC Ratio, Observed GMR (90% CI)",[2]; [16],"1.54 (1.39, 1.69)"
same,"Cmax Ratio, Observed GMR (90% CI)",[2]; [16],"1.38 (1.26, 1.52)"
same,"AUC Ratio, Ratio (Simulated/Observed)",[3]; victim drug +/− ivacaftor,1.09
same,"Cmax Ratio, Ratio (Simulated/Observed)",[3]; victim drug +/− ivacaftor,1.09
same,oral bioavailability,[8],31–72%
C=CC[C@@H]1/C=C(\C)C[C@H](C)C[C@H](OC)[C@H]2O[C@@](O)(C(=O)C(=O)N3CCCC[C@H]3C(=O)O[C@H](/C(C)=C/[C@@H]3CC[C@@H](O)[C@H](OC)C3)[C@H](C)[C@@H](O)CC1=O)[C@H](C)C[C@@H]2OC [tacrolimus],ratio of the predicted to observed PK parameters,[9],0.8–1.3
same,dose excreted unchanged in urine,[10],less than 1%
same,unchanged tacrolimus as share of total radioactivity excreted in feces,[10]; in vivo,less than 1%
same,Caco-2 permeability,[11],13.1 10^−6 cm/s
same,B/P (blood-to-plasma ratio),[4]; ref Gertz et al. [21],35
same,"TAC DN Trough Level, Post-ETI, Median",[12]; N = 13 cohort,96.12 ng/mL per mg/kg/day
same,"TAC DN Trough Level, Pre-ETI, Median",[12]; N = 13 cohort,73.41 ng/mL per mg/kg/day
same,"TAC Trough Concentration, Post-ETI, Median",[12]; N = 13 cohort,9.05 ng/mL
same,"TAC Trough Concentration, Pre-ETI, Median",[12]; N = 13 cohort,7.50 ng/mL
same,"Percent Difference DN Trough, Median (increase after starting ETI)","[12]; N = 13 cohort, p = 0.0479",32%
same,"TAC Trough Concentration, Post-ETI","[12]; individual patients 1–13, averaged within one month post ETI",9.50 ng/mL and 3.40 ng/mL and 8.90 ng/mL and 6.10 ng/mL and 5.58 ng/mL and 6.70 ng/mL and 9.05 ng/mL and 15.70 ng/mL and 14.10 ng/mL and 9.75 ng/mL and 9.73 ng/mL and 8.45 ng/mL and 11.30 ng/mL
same,Percent Difference DN Trough,"[12]; individual patients 1–13, post- vs pre-ETI",62.10% and −57.76% and 30.93% and −6.95% and −47.69% and 35.60% and 53.90% and 125.51% and 74.90% and 65.49% and 32.22% and −21.64% and 13.23%
same,"TAC Trough Concentration, Pre-ETI","[12]; individual patients 1–13, within one month before ETI start",5.60 ng/mL and 7.30 ng/mL and 7.10 ng/mL and 6.60 ng/mL and 11.40 ng/mL and 6.90 ng/mL and 8.40 ng/mL and 7.70 ng/mL and 7.50 ng/mL and 10.40 ng/mL
same,"TAC DN Trough Level, Post-ETI",[12]; [18],245.10 ng/mL per mg/kg/day and 19.30 ng/mL per mg/kg/day and 96.12 ng/mL per mg/kg/day and 101.40 ng/mL per mg/kg/day and 42.88 ng/mL per mg/kg/day and 62.88 ng/mL per mg/kg/day and 68.78 ng/mL per mg/kg/day and 162.86 ng/mL per mg/kg/day and 82.64 ng/mL per mg/kg/day and 451.10 ng/mL per mg/kg/day and 193.04 ng/mL per mg/kg/day and 54.29 ng/mL per mg/kg/day and 454.83 ng/mL per mg/kg/day
same,"TAC DN Trough Level, Pre-ETI",[12]; [18],151.20 ng/mL per mg/kg/day and 45.68 ng/mL per mg/kg/day and 73.41 ng/mL per mg/kg/day and 108.97 ng/mL per mg/kg/day and 81.98 ng/mL per mg/kg/day and 46.37 ng/mL per mg/kg/day and 44.69 ng/mL per mg/kg/day and 72.22 ng/mL per mg/kg/day and 47.25 ng/mL per mg/kg/day and 272.58 ng/mL per mg/kg/day and 146.00 ng/mL per mg/kg/day and 69.29 ng/mL per mg/kg/day and 401.70 ng/mL per mg/kg/day
same,increase in tacrolimus DN trough levels,[12]; patients on a full dose of ETI,32%
same,increase in tacrolimus DN trough levels,[12]; subgroup of 4 patients on CYP3A4 modulators and reduced ETI dose,22%
same,AUC ratio,[2],4.58
same,"AUC Ratio, Observed GMR (90% CI)",[2]; tacrolimus +/− posaconazole,"4.5 (4.0, 5.2)"
same,"Cmax Ratio, Observed GMR (90% CI)",[2]; tacrolimus +/− posaconazole,"2.0 (2.0, 2.4)"
same,"AUC Ratio, Observed GMR (90% CI)",[2]; tacrolimus +/− voriconazole,"3.0 (2.7, 3.8)"
same,"Cmax Ratio, Observed GMR (90% CI)",[2]; tacrolimus +/− voriconazole,"2.0 (1.9, 2.5)"
same,increase of tacrolimus concentration,"[2]; with clarithromycin, despite a 64% reduction in the tacrolimus dose",fourfold
same,CYP3A4 Vmax,[13]; 12-hydroxylation,0.6 pmol/min/pmol CYP
same,Km,[13]; 12-hydroxylation,290 nM
same,CYP3A4 Vmax,[13]; 13-O-desmethylation,8 pmol/min/pmol CYP
same,Km,[13]; 13-O-desmethylation,210 nM
same,ka (absorption rate constant),[14]; first-order absorption model,3.68 h⁻¹
same,kin,[14]; minimal PBPK model,0.68 h⁻¹
same,kout,[14]; minimal PBPK model,0.10 h⁻¹
same,Lag time,[14],0.43 h
same,Vsac (single adjusted compartment volume),[14],10.8 L/kg
same,fa (fraction available from dosage form),[14],1.0
same,CYP3A5 Vmax,[15]; 12-hydroxylation,1.4 pmol/min/pmol CYP
same,Km,[15]; 12-hydroxylation,350 nM
same,CYP3A5 Vmax,[15]; 13-O-desmethylation,17 pmol/min/pmol CYP
same,Km,[15]; 13-O-desmethylation,210 nM
same,"AUC Ratio, Ratio (Simulated/Observed)",[3]; tacrolimus +/− posaconazole,0.98
same,"Cmax Ratio, Ratio (Simulated/Observed)",[3]; tacrolimus +/− posaconazole,1.20
same,"AUC Ratio, Ratio (Simulated/Observed)",[3]; tacrolimus +/− voriconazole,1.07
same,"Cmax Ratio, Ratio (Simulated/Observed)",[3]; tacrolimus +/− voriconazole,1.00
same,predicted AUC and Cmax ratio relative to the observed values,"[3]; tacrolimus model as victim, DDIs with posaconazole or voriconazole",0.98 to 1.20
same,Observed AUC (0–108 h) (mean),[6]; [19],307 ng·h/mL
same,Observed Cmax (mean),[6]; [19],37.8 ng/mL
same,Observed AUC (0–264 h) (mean),[6]; [20],378 ng·h/mL
same,Observed Cmax (mean),[6]; [20],21.4 ng/mL
same,Compound type,[7]; ref Gertz et al. [21],Neutral
same,Log Po:w,[7]; ref Gertz et al. [21],3.3
same,oral bioavailability,[8],< 20%
same,bioavailability,[8]; significantly affected by the presence of food,5–93%
CC(C)(CO)c1cc2cc(NC(=O)C3(c4ccc5c(c4)OC(F)(F)O5)CC3)c(F)cc2n1C[C@@H](O)CO [tezacaftor],effect on the activity of CYP3A,[1],no significant effect

# Reference: publication PMC10222456, “Application of Physiologically Based Pharmacokinetic Modeling to Predict Drug–Drug Interactions between Elexacaftor/Tezacaftor/Ivacaftor and Tacrolimus in Lung Transplant Recipients” (Pharmaceutics, 2023)
